Experimental data from PMC10945555, “Improving Activity of New Arylurea Agents against Multidrug-Resistant and Biofilm-Producing Staphylococcus epidermidis” (ACS Medicinal Chemistry Letters, 2024).
Values after ≈ are worked out from the molar mass of the structure shown. Where two headings read alike, the source gives them in different places.

Experiments:
[1] = system: Staphylococcus aureus ATCC BAA-976; test: MIC, broth microdilution, MDR/BPSA reference strain; format: cell-based; details: ATCCBAA976; Staphylococcus aureus ATCC BAA-976; read-out: MIC MDR/BPSA
In short: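 Compounds tested as free bases dissolved in DMSO (1 mg/mL stock); determinations done twice; linezolid as positive control.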

[2] = system: clinical MDR Staphylococcus epidermidis isolates; test: MIC, broth microdilution, 81 clinical MDR strains; format: cell-based; details: Staphylococcus epidermidis
In short: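 MICs were determined by twofold broth microdilution in cation-adjusted Mueller-Hinton II broth per EUCAST, over 50–0.1 µg/mL, in duplicate. Compounds were tested as free bases dissolved in DMSO; MIC50 and MIC90 were derived across the 81 clinical MDR S. epidermidis strains.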

O=S(=O)(NC1CCN(CCC(Oc2ccc(C(F)(F)F)cc2)c2cccs2)CC1)c1cccc(C(F)(F)F)c1 (stereo not shown) [Compound 21] gave an MIC [1] of 50 µg/mL (≈ 84.4 µM), an MIC ([2]; clinical strain 1 (Table S2), read-out: MIC) of 0.8 µg/mL (≈ 1.35 µM) and an MIC ([2]; clinical strain 2 (Table S2), read-out: MIC) of 6.25 µg/mL (≈ 10.5 µM). The MIC ([2]; clinical strain 3 (Table S2), read-out: MIC) was 6.25 µg/mL (≈ 10.5 µM), the MIC ([2]; clinical strain 4 (Table S2), read-out: MIC) was 50 µg/mL (≈ 84.4 µM) and the MIC ([2]; clinical strain 5 (Table S2), read-out: MIC) was 1.6 µg/mL (≈ 2.7 µM). It also gave an MIC ([2]; clinical strain 6 (Table S2), read-out: MIC) of 50 µg/mL (≈ 84.4 µM), an MIC ([2]; clinical strain 7 (Table S2), read-out: MIC) of 50 µg/mL (≈ 84.4 µM) and an MIC ([2]; clinical strain 8 (Table S2), read-out: MIC) of 6.25 µg/mL (≈ 10.5 µM). It also gave an MIC ([2]; clinical strain 9 (Table S2), read-out: MIC) of 3.12 µg/mL (≈ 5.27 µM), an MIC ([2]; clinical strain 10 (Table S2), read-out: MIC) of 50 µg/mL (≈ 84.4 µM) and an MIC ([2]; clinical strain 11 (Table S2), read-out: MIC) of 6.25 µg/mL (≈ 10.5 µM). It also gave an MIC ([2]; clinical strain 12 (Table S2), read-out: MIC) of 50 µg/mL (≈ 84.4 µM), an MIC ([2]; clinical strain 13 (Table S2), read-out: MIC) of 50 µg/mL (≈ 84.4 µM) and an MIC ([2]; clinical strain 14 (Table S2), read-out: MIC) of 50 µg/mL (≈ 84.4 µM). For the same compound, the MIC ([2]; clinical strain 15 (Table S2), read-out: MIC) was 50 µg/mL (≈ 84.4 µM), the MIC ([2]; clinical strain 16 (Table S2), read-out: MIC) was 50 µg/mL (≈ 84.4 µM) and the MIC ([2]; clinical strain 17 (Table S2), read-out: MIC) was 50 µg/mL (≈ 84.4 µM). The MIC ([2]; clinical strain 18 (Table S2), read-out: MIC) was 50 µg/mL (≈ 84.4 µM), the MIC ([2]; clinical strain 19 (Table S2), read-out: MIC) was 50 µg/mL (≈ 84.4 µM) and the MIC ([2]; clinical strain 20 (Table S2), read-out: MIC) was 3.12 µg/mL (≈ 5.27 µM). For the same compound, the MIC ([2]; clinical strain 21 (Table S2), read-out: MIC) was 3.12 µg/mL (≈ 5.27 µM), the MIC ([2]; clinical strain 22 (Table S2), read-out: MIC) was 6.25 µg/mL (≈ 10.5 µM) and the MIC ([2]; clinical strain 23 (Table S2), read-out: MIC) was 0.8 µg/mL (≈ 1.35 µM). The MIC ([2]; clinical strain 24 (Table S2), read-out: MIC) was 3.12 µg/mL (≈ 5.27 µM), the MIC ([2]; clinical strain 25 (Table S2), read-out: MIC) was 50 µg/mL (≈ 84.4 µM) and the MIC ([2]; clinical strain 26 (Table S2), read-out: MIC) was 50 µg/mL (≈ 84.4 µM). For the same compound, the MIC ([2]; clinical strain 27 (Table S2), read-out: MIC) was 0.8 µg/mL (≈ 1.35 µM), the MIC ([2]; clinical strain 28 (Table S2), read-out: MIC) was 50 µg/mL (≈ 84.4 µM) and the MIC ([2]; clinical strain 29 (Table S2), read-out: MIC) was 50 µg/mL (≈ 84.4 µM). The MIC ([2]; clinical strain 30 (Table S2), read-out: MIC) was 50 µg/mL (≈ 84.4 µM), the MIC ([2]; clinical strain 31 (Table S2), read-out: MIC) was 50 µg/mL (≈ 84.4 µM) and the MIC ([2]; clinical strain 32 (Table S2), read-out: MIC) was 50 µg/mL (≈ 84.4 µM). It also gave an MIC ([2]; clinical strain 33 (Table S2), read-out: MIC) of 50 µg/mL (≈ 84.4 µM), an MIC ([2]; clinical strain 34 (Table S2), read-out: MIC) of 50 µg/mL (≈ 84.4 µM) and an MIC ([2]; clinical strain 35 (Table S2), read-out: MIC) of 25 µg/mL (≈ 42.2 µM). For the same compound, the MIC ([2]; clinical strain 36 (Table S2), read-out: MIC) was 50 µg/mL (≈ 84.4 µM), the MIC ([2]; clinical strain 37 (Table S2), read-out: MIC) was 50 µg/mL (≈ 84.4 µM) and the MIC ([2]; clinical strain 38 (Table S2), read-out: MIC) was 50 µg/mL (≈ 84.4 µM). It also gave an MIC ([2]; clinical strain 39 (Table S2), read-out: MIC) of 50 µg/mL (≈ 84.4 µM), an MIC ([2]; clinical strain 40 (Table S2), read-out: MIC) of 50 µg/mL (≈ 84.4 µM) and an MIC ([2]; clinical strain 41 (Table S2), read-out: MIC) of 50 µg/mL (≈ 84.4 µM). The MIC ([2]; clinical strain 42 (Table S2), read-out: MIC) was 6.25 µg/mL (≈ 10.5 µM), the MIC ([2]; clinical strain 43 (Table S2), read-out: MIC) was 6.25 µg/mL (≈ 10.5 µM) and the MIC ([2]; clinical strain 44 (Table S2), read-out: MIC) was 50 µg/mL (≈ 84.4 µM). For the same compound, the MIC ([2]; clinical strain 45 (Table S2), read-out: MIC) was 50 µg/mL (≈ 84.4 µM), the MIC ([2]; clinical strain 46 (Table S2), read-out: MIC) was 50 µg/mL (≈ 84.4 µM) and the MIC ([2]; clinical strain 47 (Table S2), read-out: MIC) was 50 µg/mL (≈ 84.4 µM). The MIC ([2]; clinical strain 48 (Table S2), read-out: MIC) was 50 µg/mL (≈ 84.4 µM), the MIC ([2]; clinical strain 49 (Table S2), read-out: MIC) was 50 µg/mL (≈ 84.4 µM) and the MIC ([2]; clinical strain 50 (Table S2), read-out: MIC) was 50 µg/mL (≈ 84.4 µM). For the same compound, the MIC ([2]; clinical strain 51 (Table S2), read-out: MIC) was 50 µg/mL (≈ 84.4 µM), the MIC ([2]; clinical strain 52 (Table S2), read-out: MIC) was 50 µg/mL (≈ 84.4 µM) and the MIC ([2]; clinical strain 53 (Table S2), read-out: MIC) was 50 µg/mL (≈ 84.4 µM). For the same compound, the MIC ([2]; clinical strain 54 (Table S2), read-out: MIC) was 50 µg/mL (≈ 84.4 µM), the MIC ([2]; clinical strain 55 (Table S2), read-out: MIC) was 50 µg/mL (≈ 84.4 µM) and the MIC ([2]; clinical strain 56 (Table S2), read-out: MIC) was 50 µg/mL (≈ 84.4 µM). It also gave an MIC ([2]; clinical strain 57 (Table S2), read-out: MIC) of 50 µg/mL (≈ 84.4 µM), an MIC ([2]; clinical strain 58 (Table S2), read-out: MIC) of 50 µg/mL (≈ 84.4 µM) and an MIC ([2]; clinical strain 59 (Table S2), read-out: MIC) of 50 µg/mL (≈ 84.4 µM). It also gave an MIC ([2]; clinical strain 60 (Table S2), read-out: MIC) of 50 µg/mL (≈ 84.4 µM), an MIC ([2]; clinical strain 61 (Table S2), read-out: MIC) of 50 µg/mL (≈ 84.4 µM) and an MIC ([2]; clinical strain 62 (Table S2), read-out: MIC) of 50 µg/mL (≈ 84.4 µM). For the same compound, the MIC ([2]; clinical strain 63 (Table S2), read-out: MIC) was 50 µg/mL (≈ 84.4 µM), the MIC ([2]; clinical strain 64 (Table S2), read-out: MIC) was 50 µg/mL (≈ 84.4 µM) and the MIC ([2]; clinical strain 65 (Table S2), read-out: MIC) was 3.12 µg/mL (≈ 5.27 µM). The MIC ([2]; clinical strain 66 (Table S2), read-out: MIC) was 3.12 µg/mL (≈ 5.27 µM), the MIC ([2]; clinical strain 67 (Table S2), read-out: MIC) was 50 µg/mL (≈ 84.4 µM) and the MIC ([2]; clinical strain 68 (Table S2), read-out: MIC) was 50 µg/mL (≈ 84.4 µM). The MIC ([2]; clinical strain 69 (Table S2), read-out: MIC) was 50 µg/mL (≈ 84.4 µM), the MIC ([2]; clinical strain 70 (Table S2), read-out: MIC) was 50 µg/mL (≈ 84.4 µM) and the MIC ([2]; clinical strain 71 (Table S2), read-out: MIC) was 50 µg/mL (≈ 84.4 µM). For the same compound, the MIC ([2]; clinical strain 72 (Table S2), read-out: MIC) was 50 µg/mL (≈ 84.4 µM), the MIC ([2]; clinical strain 73 (Table S2), read-out: MIC) was 50 µg/mL (≈ 84.4 µM) and the MIC ([2]; clinical strain 74 (Table S2), read-out: MIC) was 50 µg/mL (≈ 84.4 µM). It also gave an MIC ([2]; clinical strain 75 (Table S2), read-out: MIC) of 50 µg/mL (≈ 84.4 µM), an MIC ([2]; clinical strain 76 (Table S2), read-out: MIC) of 50 µg/mL (≈ 84.4 µM) and an MIC ([2]; clinical strain 77 (Table S2), read-out: MIC) of 1.6 µg/mL (≈ 2.7 µM). For the same compound, the MIC ([2]; clinical strain 78 (Table S2), read-out: MIC) was 50 µg/mL (≈ 84.4 µM), the MIC ([2]; clinical strain 79 (Table S2), read-out: MIC) was 50 µg/mL (≈ 84.4 µM) and the MIC ([2]; clinical strain 80 (Table S2), read-out: MIC) was 50 µg/mL (≈ 84.4 µM). For the same compound, the MIC ([2]; clinical strain 81 (Table S2), read-out: MIC) was 50 µg/mL (≈ 84.4 µM), the MIC ([2]; mean of MIC values against clinical MDR-SE isolates, read-out: mean MIC) was 39.4 µg/mL (≈ 66.5 µM) and the MIC50 ([2]; 81 clinical strains, concentration inhibiting growth of 50% clinical isolates) was 50 µg/mL (≈ 84.4 µM). The MIC90 ([2]; 81 clinical strains, concentration inhibiting growth of 90% of clinical isolates) was 50 µg/mL (≈ 84.4 µM).
